Test results from ChEMBL document CHEMBL5308504, “Tm Shift (DSF) assay results for EUbOPEN Chemogenomics Library” (2023).

Legend:
[1] = target: T1, Peregrin (Homo sapiens) (UniProt P55201); details: Compound concentration 20.0 uM, Protein concentration 2.0 uM, Result type QC Liability
T1 sequence (whole entry): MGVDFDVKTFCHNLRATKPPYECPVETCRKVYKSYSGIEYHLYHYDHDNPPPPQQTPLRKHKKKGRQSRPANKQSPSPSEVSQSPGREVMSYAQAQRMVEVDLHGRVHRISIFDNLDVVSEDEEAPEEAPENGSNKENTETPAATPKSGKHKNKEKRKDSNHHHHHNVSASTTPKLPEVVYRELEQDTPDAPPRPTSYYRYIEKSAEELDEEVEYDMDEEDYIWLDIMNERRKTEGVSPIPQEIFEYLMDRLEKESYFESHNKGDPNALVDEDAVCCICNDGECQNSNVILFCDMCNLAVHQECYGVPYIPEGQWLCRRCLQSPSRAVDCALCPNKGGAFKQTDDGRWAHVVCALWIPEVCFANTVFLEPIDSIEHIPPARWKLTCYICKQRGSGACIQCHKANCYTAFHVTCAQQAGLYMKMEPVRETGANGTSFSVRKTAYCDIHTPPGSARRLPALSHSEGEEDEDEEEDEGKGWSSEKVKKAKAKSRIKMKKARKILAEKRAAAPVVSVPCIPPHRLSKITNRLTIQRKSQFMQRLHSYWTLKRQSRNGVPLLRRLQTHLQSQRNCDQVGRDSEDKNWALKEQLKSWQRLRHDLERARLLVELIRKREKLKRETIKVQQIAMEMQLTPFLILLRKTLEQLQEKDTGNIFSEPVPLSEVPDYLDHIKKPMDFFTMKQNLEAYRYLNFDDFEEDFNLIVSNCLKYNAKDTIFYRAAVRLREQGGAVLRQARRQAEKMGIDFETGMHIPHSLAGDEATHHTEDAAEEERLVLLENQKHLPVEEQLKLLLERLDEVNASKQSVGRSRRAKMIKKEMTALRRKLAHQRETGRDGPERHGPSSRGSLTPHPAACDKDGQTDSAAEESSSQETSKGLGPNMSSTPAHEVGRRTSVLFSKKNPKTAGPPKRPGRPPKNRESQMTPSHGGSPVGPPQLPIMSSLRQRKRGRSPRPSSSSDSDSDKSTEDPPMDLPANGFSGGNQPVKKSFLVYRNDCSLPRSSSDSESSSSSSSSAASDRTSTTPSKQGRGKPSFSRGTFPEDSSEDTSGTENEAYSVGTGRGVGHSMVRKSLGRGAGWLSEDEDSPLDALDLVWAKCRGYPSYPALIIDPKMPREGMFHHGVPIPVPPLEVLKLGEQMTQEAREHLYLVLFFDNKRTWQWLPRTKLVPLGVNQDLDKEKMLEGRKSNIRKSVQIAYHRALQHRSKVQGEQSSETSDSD

[2] = target: Fibroblast growth factor receptor 3 (Homo sapiens) (UniProt P22607); details: Compound concentration 20.0 uM, Protein concentration 2.0 uM, Result type QC Liability
Chain of Fibroblast growth factor receptor 3 (Homo sapiens) (P22607 23-806 limits assumed): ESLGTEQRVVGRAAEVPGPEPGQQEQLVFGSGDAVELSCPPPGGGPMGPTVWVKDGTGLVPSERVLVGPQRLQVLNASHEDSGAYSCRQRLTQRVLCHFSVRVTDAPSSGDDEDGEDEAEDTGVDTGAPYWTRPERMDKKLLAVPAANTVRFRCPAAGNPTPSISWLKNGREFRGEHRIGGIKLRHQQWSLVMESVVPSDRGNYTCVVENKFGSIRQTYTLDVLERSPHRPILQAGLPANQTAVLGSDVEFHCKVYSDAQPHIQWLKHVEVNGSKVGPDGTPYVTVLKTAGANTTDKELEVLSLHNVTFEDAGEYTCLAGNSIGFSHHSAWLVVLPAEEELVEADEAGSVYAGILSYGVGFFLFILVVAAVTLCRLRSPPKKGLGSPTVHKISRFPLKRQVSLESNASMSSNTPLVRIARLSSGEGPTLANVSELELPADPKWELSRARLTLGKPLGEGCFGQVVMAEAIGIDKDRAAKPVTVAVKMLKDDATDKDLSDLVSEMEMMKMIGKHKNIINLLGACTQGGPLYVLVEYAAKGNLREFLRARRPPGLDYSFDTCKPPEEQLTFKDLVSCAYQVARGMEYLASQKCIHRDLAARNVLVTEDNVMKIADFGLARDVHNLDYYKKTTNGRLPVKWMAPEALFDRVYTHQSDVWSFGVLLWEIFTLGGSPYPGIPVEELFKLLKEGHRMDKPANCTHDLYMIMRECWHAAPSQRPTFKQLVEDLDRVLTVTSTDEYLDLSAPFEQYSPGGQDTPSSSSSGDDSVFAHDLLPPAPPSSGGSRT
Description: Thermal Shift Assay. Domain: start/stop: P449-E759

| ΔTm [1] [°C] | ΔTm [2] [°C] | Compound |
| --- | --- | --- |
| -1.57 | 0.45 | COc1ccccc1[C@@H]1CNCCC12CCN(C(=O)[C@](OC)(c1ccccc1)C(F)(F)F)CC2 |
| 7.54 | 8.54 | CN(c1ccc(C(F)(F)F)cc1)S(=O)(=O)c1ccc(C(=O)Nc2nc(-c3ccccn3)cs2)cc1 |
| 0.34 | 1.8 | COc1cc2nc(-c3cc(F)ccc3O)nc(N[C@@H]3CNC[C@H]3C(C)(C)O)c2cc1OC |
| -1.53 | 0.48 | C[C@@H]1OCC2(CCN(c3cnc(Sc4ccnc(N)c4Cl)c(N)n3)CC2)[C@@H]1N |
| -1.04 | 0.54 | Cc1n[nH]c2ncc(C(=O)N3CCC[C@H]3c3ccc(Cl)cc3)cc12 |
| -2.16 | 0.44 | O=C(O)c1ccc(CN2C[C@@H]3C[C@H]2CN3Cc2ccc(Oc3ccc(-c4ncco4)cc3)cc2)cc1 |
| -1.57 | 0.89 | Cc1cc(-c2cnc(N)c3c(-c4ccc5scnc5c4)csc23)n(C)n1 |
| -1.23 | -1.02 | CC#CC(=O)N1CCN(c2nc(-c3ccc(Oc4ccccc4)cc3)c(C(N)=O)s2)CC1 |
| -0.59 | 1.31 | Cn1c(Nc2c(Cl)cccc2Cl)nc2ccc3nc[nH]c(=O)c3c21 |
| -3.41 | 0.35 | Cc1cc2nc(N3CCC(C(=O)NC4CCCC4)CC3)n(C(C)C)c2cc1C |
| -2.28 | 1.14 | Nc1nc(-c2nn(Cc3ccccc3F)c3ncccc23)ncc1C1CC1 |
| 0.44 | 0.84 | COc1cc(-c2cn(C)c(=O)c3cnccc23)c(OC)cc1CN(C)C |
| -1.56 | 0.83 | CN1CCN(c2ccc(Nc3ncc4cc5n(c4n3)C3(CCCCC3)CNC5=O)nc2)CC1 |
| -1.93 | 0.76 | COc1cc(N(C)c2ccnc3ccc(C(F)(F)F)cc23)cc(OC)c1OC |
| -1.84 | 7.35 | CC(=O)N(CCN(C)C)c1ccc(N/C(=C2\C(=O)Nc3cc(Cl)ccc32)c2ccccc2)cn1 |
| -1.65 | 0.5 | Cn1cc(-c2ccc(-c3cncc(Cl)c3N3CCC4(CCNC4=O)CC3)cc2)cn1 |
| -1.21 | 0.66 | CCOC(=O)Nc1ccc2c(c1)N(C(=O)CN(CC)CC)c1ccccc1CC2 |
| -1.08 | 0.93 | Cc1cn([C@@H](C)CC#N)c(=O)c2cc(Cn3nc(C(F)F)cc3Cl)nn12 |
| 0.06 | 4.45 | CC(C)[C@H](CO)Nc1nc(Nc2ccc(C(=O)O)c(Cl)c2)c2ncn(C(C)C)c2n1 |
| -2.45 | 0.62 | Cc1ccc(-c2cn3nc(C(=O)NC4(c5ccc(F)cc5)CN(C)C4)c(C(C)C)c3c(=O)[nH]2)cc1C |
| -1.54 | -0.1 | CC[C@H](Nc1c(C#N)c(-c2ccc(-c3cccc(C)c3F)cc2)nc2cnccc12)C(=O)O |
| -1.87 | -2.65 | CN1C(=O)[C@@H](NC(=O)c2cc(Cc3ccccc3)on2)COc2ccccc21 |
| -1.85 | 0.52 | Cc1[nH]nc(C(F)(F)F)c1Cc1sc2c(c1C(=O)N1C[C@](C)(O)CO1)c(=O)n(C)c(=O)n2C(C)C |
| -2.24 | 0.88 | N#Cc1ccc(C#CC[C@@H](C#N)NC(=O)[C@H]2CCCCN2)cc1F |
| -0.56 | 2.38 | CCN(C)S(=O)(=O)Nc1cccc(-c2ccc3c(NC(=O)C4CC4)n[nH]c3c2)c1 |
| -3.2 | 7.9 | CCCCNc1ncc2c(-c3ccc(CN4CCN(C)CC4)cc3)cn([C@H]3CC[C@H](O)CC3)c2n1 |

| ΔTm [1] [°C] | ΔTm [2] [°C] | Compound |
| --- | --- | --- |
| -1.31 | 0.98 | N#CN1CC[C@@H](C(=O)Nc2nc3c(s2)CN(C(=O)CN=[N+]=[N-])CC3)C1 |
| -2.19 | 0.81 | Cc1cc(OCc2nc3ccccc3s2)ccc1NC(=O)Nc1ccc(Cl)c(Cl)c1 |
| -2.26 | 1.12 | c1ccc2c(-c3coc4cc(-c5ccc(N6CCNCC6)cc5)cnc34)ccnc2c1 |
| -2.07 | 1.32 | Cc1cc(Cn2c(N3CC4(CNC4)C3)nc3cc(Cl)cc(N4CCN(C)CC4)c32)cc(C)c1F |
| -1.46 | 0.37 | Cc1cc(=O)oc2cc(NC(=O)[C@H](Cc3ccc(I)cc3)NC(=O)[C@H]3N[C@@H]4CC[C@H]3C4)ccc12 |
| -2.32 | 0.69 | CC1CCN(c2ccnc(NCc3cn(C)cn3)n2)CC1 |
| -3.07 | -0.44 | CN1C(=O)c2c(nn(Cc3ccc(-c4cccc(F)n4)cc3)c2Nc2ccccc2)N2C1=N[C@@H]1CCC[C@@H]12 |
| -0.32 | 1.75 | Cn1cc(-c2ccc(N(C(=O)NCc3ccccc3)[C@H]3CC[C@H](Nc4ccc(C#N)cn4)CC3)cc2)ccc1=O |
| -1.27 | 5.87 | COc1nc2ccc([C@@](O)(c3ccccc3)C3CCN(C(C)=O)CC3)cc2c(Cl)c1Cc1ccc(-n2cccn2)cc1 |
| -2.35 | 0.47 | Cn1nccc1-c1ccc(Sc2cccc(C3(C(N)=O)CCOCC3)c2)cc1 |
| -1.11 | 2.03 | CNc1ncc2cc(-c3ccc(-c4ncccc4F)cc3Cl)c(=O)n(C[C@H]3OC[C@H](N)CO3)c2n1 |
| -1.51 | 1.09 | N#CN1CC[C@H](C(=O)Nc2nc3c(s2)CN(C(=O)CN=[N+]=[N-])CC3)C1 |
| -2.38 | 1.12 | COc1c(NC(=O)c2cc3cccc(Oc4ccnc(C(=O)N5CCN(C)CC5)c4)c3n2C)cc(C(C)(C)C)cc1NS(C)(=O)=O |
| 4.54 | 3.17 | COc1cccc(Cn2cc(C(=O)Nc3ccc(C)c(S(=O)(=O)N4CCOCC4)c3)c(-c3ccc(C)cc3)n2)c1 |
| -1.34 | 0.48 | COc1ccc(COc2ccc(Cc3cnc(N)nc3N)cc2OC)cc1 |
| -2.23 | 1.64 | CC(C)Nc1ncnc2cc(OCc3cccc([S@@](C)(=N)=O)c3)c(Br)cc12 |
| -1.18 | 0.45 | O=c1cc(C2CCNCC2)n2nc3cccc(Cl)c3c2[nH]1 |
| -0.77 | 0.74 | O=C1COc2cc(C(=O)N(Cc3ccc(C(=O)Nc4ccncn4)cc3)C3CC3)ccc2N1 |
| -3.08 | 0.46 | O=C(CCCCCCc1ccccc1)c1ncc(-c2ccccn2)o1 |
| -2.76 | 0.36 | Cc1sc(C(=O)c2cncnc2N[C@@H]2C[C@H](COS(N)(=O)=O)[C@@H](O)C2)cc1[C@@H]1NCCc2ccc(Cl)cc21 |
| -0.49 | 1.51 | O=C(NC[C@@H]1[C@H]2CN(C(=O)OCc3cc(C(F)(F)F)cc(C(F)(F)F)c3)C[C@@H]12)c1ccc2[nH]nnc2c1 |
| -0.82 | 7.32 | C=CC(=O)Nc1ccc(C(=O)Nc2[nH]nc3c2CN(C(=O)N[C@H](CN(C)C)c2ccccc2)C3(C)C)cc1 |
| -1.78 | 0.8 | O=C(O)CCCc1cc2cc(Cl)ccc2n1S(=O)(=O)c1ccc2ncsc2c1 |
| -1.89 | 1.13 | CCN1C(=O)/C(=C(\NC2CCN(C)CC2)c2ccc3c(c2)OCO3)c2cc(C(C)=O)ccc21 |
| -1.42 | 1.15 | Clc1cccc(Nc2nccc(NCCCN3CCOCC3)n2)c1 |
| 0.37 | 0.67 | Cc1cc([N+](=O)[O-])c(NS(=O)(=O)c2cccc(C(=O)O)c2)cc1-c1cccnc1 |

| Compound | ΔTm [1] [°C] | ΔTm [2] [°C] |
| --- | --- | --- |
| CN(C(=O)CCOCCOCCOCCOCCNc1cccc2c1C(=O)N(C1CCC(=O)NC1=O)C2=O)[C@H]1CC[C@@]2(C)[C@@H](CC[C@@H]3[C@@H]2CC[C@]2(C)[C@@H](c4ccc5ccncc5c4)CC[C@@H]32)C1 (stereo partly specified) | 3.76 | 1.42 |
